Reference: patent US20250213598A1, “COMPOUNDS AS ELASTASE INHIBITOR AND SOLID FORM THEREOF” (priority 2023, published 2025)

Columns and labels:
Type in all cases: physicochemical
[1] = Solid-state stability, 2-week study (HPLC, XRPD)
Procedure: The solubility and stability are analyzed using an Agilent 1260 infinityII Binary Pump. • 4.

[2] = Photostability of crystal form A and amorphous form
Procedure: A certain amount of crystal form A and amorphous form of the compound shown in Formula (I) were respectively taken, and the stabilities of crystal form A and amorphous form were evaluated under light conditions.

[3] = Dynamic solubility in citrate buffer solutions at room temperature; conditions: for pH: supernatant
Procedure: During the test, about 200 mg of crystal form A or the amorphous form was added into 5 mL of buffered salt medium (approximately 40 mg/mL), and stirred magnetically at room temperature (approximately 25° C.). 1 mL of the suspension (or clear solution) taken at each of 2, 8, and 30 hours were centrifugated. The obtained solid is for crystal form detection (XRPD), and the supernatant/clear liquid after filtration is for solubility testing (HPLC) and pH testing.

[4] = After 11 days, 25° C., illumination 5000 lux/h, near-ultraviolet 90 μW/cm^2

In the case of `C#Cc1c(F)ccc2cc(O)cc(-c3ncc4c(N5CC6CCC(C5)N6)nc(OC[C@@]56CCCN5C[C@H](F)C6)nc4c3F)c12` [Amorphous], the “Content (%)” value ([1]; 25° C./60 % RH, 1 week) is reported as 88.54%, the “Crystal form” value ([1]; 25° C./60 % RH, 1 week) is reported as “Amorphous” and the “Purity (area %)” value ([1]; 25° C./60 % RH, 1 week) is reported as 97.58 area %. The “Relative to initial (%)” value ([1]; 25° C./60 % RH, 1 week) was 99.0%, the “Content (%)” value ([1]; 25° C./60 % RH, 2 weeks) was 86.62% and the Crystal form ([1]; 25° C./60 % RH, 2 weeks) was “Amorphous”. For the same compound, the “Purity (area %)” value ([1]; 25° C./60 % RH, 2 weeks) was 96.98 area %, the “Relative to initial (%)” value ([1]; 25° C./60 % RH, 2 weeks) was 98.4% and the “crystal form changes in the two-week stability assessment” value ([1]; 25° C./60% RH, 40° C./75% RH, 60° C., two weeks) was “neither the amorphous form nor crystal form A underwent crystal form changes”. For the same compound, the “Content (%)” value ([1]; 40° C./75 % RH, 1 week) was 87.54%, the “Crystal form” value ([1]; 40° C./75 % RH, 1 week) was “Amorphous” and the “Purity (area %)” value ([1]; 40° C./75 % RH, 1 week) was 97.87 area %. The “Relative to initial (%)” value ([1]; 40° C./75 % RH, 1 week) was 99.3%, the “Content (%)” value ([1]; 40° C./75 % RH, 2 weeks) was 86.77% and the Crystal form ([1]; 40° C./75 % RH, 2 weeks) was “Amorphous”. The “Purity (area %)” value ([1]; 40° C./75 % RH, 2 weeks) was 96.87 area %, the “Relative to initial (%)” value ([1]; 40° C./75 % RH, 2 weeks) was 98.3% and the “Content (%)” value ([1]; 60° C., 1 week) was 90.96%. For the same compound, the “Crystal form” value ([1]; 60° C., 1 week) was “Amorphous”, the “Purity (area %)” value ([1]; 60° C., 1 week) was 96.97 area % and the “Relative to initial (%)” value ([1]; 60° C., 1 week) was 98.4%. The “Content (%)” value ([1]; 60° C., 2 weeks) was 88.93%, the Crystal form ([1]; 60° C., 2 weeks) was “Amorphous” and the “Purity (area %)” value ([1]; 60° C., 2 weeks) was 96.14 area %. For the same compound, the “Relative to initial (%)” value ([1]; 60° C., 2 weeks) was 97.5%, the “Content (%)” value ([1]; initial) was 90.28% and the Crystal form ([1]; initial) was “Amorphous”. The “Purity (area %)” value ([1]; initial) was 98.56 area %, the “Content (%)” value [2, 4] was 82.68% and the Crystal form [2, 4] was “Amorphous”. For the same compound, the “Purity (area %)” value [2, 4] was 93.42 area %, the “Relative to initial (%)” value [2, 4] was 94.8% and the “Initial Sample Content (%)” value ([2]; initial sample) was 90.28%. The “Initial Sample Purity (area %)” value ([2]; initial sample) was 98.56 area %, the “crystal form changes in the photostability test” value ([2]; light conditions) was “neither the amorphous form nor crystal form A underwent crystal form changes” and the “Solubility” value ([3]; Citrate buffer pH = 3.5, room temperature, 2 hours) was over 37.77 mg/mL. For the same compound, the “Solubility” value ([3]; Citrate buffer pH = 3.5, room temperature, 8 hours) was over 38.95 mg/mL, the “Solubility” value ([3]; Citrate buffer pH = 3.5, room temperature, 30 hours) was over 37.45 mg/mL and the “Solubility” value ([3]; Citrate buffer pH = 4.5, room temperature, 2 hours) was over 33.47 mg/mL. For the same compound, the “Solubility” value ([3]; Citrate buffer pH = 4.5, room temperature, 8 hours) was over 35.71 mg/mL, the “Solubility” value ([3]; Citrate buffer pH = 4.5, room temperature, 30 hours) was over 37.52 mg/mL and the “solubility in the citrate buffer systems (in words)” value ([3]; citrate buffer pH=3.5 and pH=4.5) was “excellent solubility”. For the same compound, the pH ([3]; citrate buffer pH = 3.5, 2 hours) was 3.63, the pH ([3]; citrate buffer pH = 3.5, 8 hours) was 3.59 and the pH ([3]; citrate buffer pH = 3.5, 30 hours) was 3.56. The pH ([3]; citrate buffer pH = 4.5, 2 hours) was 4.46, the pH ([3]; citrate buffer pH = 4.5, 8 hours) was 4.44 and the pH ([3]; citrate buffer pH = 4.5, 30 hours) was 4.40.
